Assay results taken from patent US10039770B2, “Prostaglandin F2Alpha and analogues thereof for treating atrophic cutaneous scarring” (Galderma S.A., priority 2013, dated 2018).

Key:
atrophic cutaneous scar = experiment: Topical treatment of an atrophic cutaneous scar in a human (case example); type: in vivo; settings: aqueous solution 0.004% topical once daily
Description: FIG. 1 A. depicts a 6 month old atrophic cutaneous scar secondary to dermatologic surgery present on the abdomen of a person prior to treatment. During the 3 to 4 months prior to starting topical treatment with PGF 2α analog, the scar had not qualitatively changed in structure or appearance. […] The scar was then treated with an aqueous solution of topical travoprost 0.004% which was digitally massaged onto the scar surface once daily for several weeks. FIGS. 1B through J depict the appearance of the same scar at one week intervals during the treatment period.

skin (Sc)fibroblasts = settings: exogenous administration; mice with a mutated form of α2AP; cited from earlier work
synovial fibroblast = settings: in culture; cited from earlier work

Molecule | Langer lines across the previously scarred skin (atrophic cutaneous scar; at 8 weeks) | surrounding skin: keloid formation, atrophy or pigmentation (atrophic cutaneous scar; at all time points) | other adverse reactions (atrophic cutaneous scar; during or after the treatment interval) | erythema of the scar (atrophic cutaneous scar; over 9 weeks of treatment) | transition of the border between the scar tissue and normal surrounding skin (atrophic cutaneous scar; over 9 weeks of treatment) | fibrosis and thickening of the atrophic areas of the scar (atrophic cutaneous scar; person, abdominal scar, over 9 weeks of treatment) | bleomycin-induced collagen production / fibrosis in mutant (Sc)fibroblast strain (skin (Sc)fibroblasts) | synovial fibroblast collagen production, cell proliferation and cell migration (synovial fibroblast)
CC(C)OC(=O)CCC/C=C\C[C@@H]1[C@@H](/C=C/[C@@H](O)COc2cccc(C(F)(F)F)c2)[C@H](O)C[C@@H]1O [travoprost] | normal appearing Langer lines are apparent | no evidence of keloid formation, atrophy or pigmentation | No other adverse reactions were noted | decrease in erythema | visibly smoother transition of the border between the scar tissue and normal surrounding skin | gradual increase in fibrosis and thickening of the atrophic areas of the scar | – | –
Prostaglandin F 2α [PGF 2α] | – | – | – | – | – | – | reversed the attenuation and this resulted in dermal thickening and fibrosis | stimulated
transforming growth factor β | – | – | – | – | – | – | – | not
